Assay results from US20240158446A1, “CYCLIC COMPOUND HAVING SELECTIVE INHIBITORY ACTION ON KRAS OVER HRAS AND NRAS” (CHUGAI SEIYAKU KABUSHIKI KAISHA, priority 2021, published 2024).
Where two headings read alike, the source gives them in different places.

Experiments:
[1] = test system: human lung cancer strain NCI-H441;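 note: cell proliferation inhibition after four days measured by CellTiter-Glo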
[2] = biological target: GDP-bound KRAS wild-type protein (Homo sapiens, UniProt P01116); assay: Binding to KRAS by surface plasmon resonance (SPR), Single Cycle Kinetics
Sequence of GDP-bound KRAS wild-type protein (P01116 whole entry): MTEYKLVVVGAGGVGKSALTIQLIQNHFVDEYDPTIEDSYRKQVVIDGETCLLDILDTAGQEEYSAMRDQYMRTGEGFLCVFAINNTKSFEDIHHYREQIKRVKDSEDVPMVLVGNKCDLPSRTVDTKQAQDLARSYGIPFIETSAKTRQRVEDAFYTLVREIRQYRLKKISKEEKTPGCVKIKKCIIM

[3] = biological target: GDP-bound HRAS wild-type protein (Homo sapiens, UniProt P01112); assay: Binding to HRAS by surface plasmon resonance (SPR), Single Cycle Kinetics; conditions: for HRAS/KRAS (ratio of KD value for HRAS to KD value for KRAS) / ratio of the KD value with respect to GDP-bound HRAS wild-type protein to the KD value with respect to KRAS: SPR; for HRAS/KRAS (ratio of KD value for HRAS to KD value for KRAS): GDP-bound HRAS wild-type protein vs GDP-bound KRAS wild-type protein; for HRAS/KRAS (ratio of KD value with respect to GDP-bound HRAS wild-type protein to KD value with respect to KRAS): SPR KD ratio HRAS/KRAS, class symbols
Sequence of GDP-bound HRAS wild-type protein (P01112 whole entry): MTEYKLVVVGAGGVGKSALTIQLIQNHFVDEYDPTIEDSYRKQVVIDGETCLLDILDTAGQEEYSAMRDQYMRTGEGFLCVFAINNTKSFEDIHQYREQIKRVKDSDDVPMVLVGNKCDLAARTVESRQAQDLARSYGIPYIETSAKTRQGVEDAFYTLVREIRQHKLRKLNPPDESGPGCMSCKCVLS

[4] = biological target: GDP-bound NRAS wild-type protein (Homo sapiens, UniProt P01111); assay: Binding to NRAS by surface plasmon resonance (SPR), Single Cycle Kinetics; conditions: for NRAS/KRAS (ratio of KD value for NRAS to KD value for KRAS) / ratio of the KD value with respect to GDP-bound NRAS wild-type protein to the KD value with respect to KRAS: SPR; for NRAS/KRAS (ratio of KD value for NRAS to KD value for KRAS): GDP-bound NRAS wild-type protein vs GDP-bound KRAS wild-type protein; for NRAS/KRAS (ratio of KD value with respect to GDP-bound NRAS wild-type protein to KD value with respect to KRAS): SPR KD ratio NRAS/KRAS, class symbols
Sequence of GDP-bound NRAS wild-type protein (P01111 whole entry): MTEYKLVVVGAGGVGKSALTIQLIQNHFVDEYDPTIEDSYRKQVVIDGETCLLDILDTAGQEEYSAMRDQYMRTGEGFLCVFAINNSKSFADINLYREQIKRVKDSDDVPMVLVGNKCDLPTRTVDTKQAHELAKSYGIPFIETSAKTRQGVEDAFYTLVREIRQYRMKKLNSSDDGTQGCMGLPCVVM

[5] = SPR, Single Cycle Kinetics, GDP-bound KRAS wild-type protein, read-out: KRAS KD
[6] = SPR, Single Cycle Kinetics, 1:1 binding model, GDP-bound KRAS wild-type protein, read-out: KRAS KD
[7] = SPR Single Cycle Kinetics, GDP-bound KRAS wild-type protein, 1:1 binding model, read-out: KRAS KD
[8] = read-out: NCI-H441 cell proliferation inhibitory activity, 50% proliferation inhibitory concentration (IC50 value), NCI-H441, four days, CellTiter-Glo
[9] = SPR, Single Cycle Kinetics, 1:1 binding model, read-out: KD value with respect to GDP-bound KRAS wild-type protein

| Structure (SMILES) | IC50 [1] [nM] | Kd [2, 5] [nM] | Kd [2, 6] [nM] | HRAS/KRAS (ratio of KD value for HRAS to KD value for KRAS) [3] | NRAS/KRAS (ratio of KD value for NRAS to KD value for KRAS) [4] | HRAS/KRAS (ratio of KD value for HRAS to KD value for KRAS) ([3]; KD ratio class) | NRAS/KRAS (ratio of KD value for NRAS to KD value for KRAS) ([4]; KD ratio class) | further results |
| --- | --- | --- | --- | --- | --- | --- | --- | --- |
| CCCOC[C@H]1C(=O)N[C@@H]([C@@H](C)CC)C(=O)N(C)CC(=O)N(C)[C@H]2C/C=C\CCN(C2=O)[C@@H](CC2CCC(F)(F)CC2)C(=O)N(C)CC(=O)N[C@@H](CCc2ccc(C(F)(F)F)c(Cl)c2)C(=O)N2C[C@H](OCC)C[C@H]2C(=O)NC2(CC(C)(C)C2)C(=O)N(C)[C@@H](C(CC)CC)C(=O)N(C)[C@H](C(=O)N(C)C)CC(=O)N1C [PP2484] | 74.3 | 1 | – | A (a compound having 10 or more and less than 20 is denoted as A) | A (a compound having 10 or more and less than 20 is denoted as A) | – | – | – |
| CC[C@H](C)[C@@H]1NC(=O)[C@H](CC2CC2)N(C)C(=O)C[C@@H](C)N(C)C(=O)[C@H](C2CCCC2)N(C)C(=O)C2(CCC2)NC(=O)[C@H](CC(F)F)N(C)C(=O)[C@H](CCc2cc(F)c(C(F)(F)F)c(F)c2)NC(=O)CN(C)C(=O)[C@H](Cc2ccc(C(F)(F)F)cc2)N2CC/C=C\C[C@@H](C2=O)N(C)C(=O)CN(C)C1=O [PP1405] | 466 | – | 8.5 | – | – | A (a compound having 10 or more and less than 20 is denoted as A) | A (a compound having 10 or more and less than 20 is denoted as A) | – |
| CCC[C@H]1C(=O)N[C@@H]([C@@H](C)CC)C(=O)N2CCC[C@H]2C(=O)N(C)[C@H]2C/C=C\CCN(C2=O)[C@@H](Cc2ccc(C(F)(F)F)cc2)C(=O)N(C)CC(=O)N[C@@H](CCc2cc(F)c(C(F)(F)F)c(F)c2)C(=O)N2C[C@H](OCC)C[C@H]2C(=O)N(C)C2(CCC2)C(=O)N(C)[C@@H](C2CCCC2)C(=O)N(C)[C@H](C(=O)N2CCCCC2)CC(=O)N1C [PP3114] | – | 4.5 | – | A (a compound having 10 or more and less than 20 is denoted as A) | AA (a compound having 20 or more is denoted as AA) | – | – | IC50 [1, 8]: 14.7 nM; Kd [2, 9]: 4.5 nM; ratio of the KD value with respect to GDP-bound HRAS wild-type protein to the KD value with respect to KRAS [3]: A (a compound having 10 or more and less than 20 is denoted as A); ratio of the KD value with respect to GDP-bound NRAS wild-type protein to the KD value with respect to KRAS [4]: AA (a compound having 20 or more is denoted as AA) |
| CC[C@H](C)[C@@H]1NC(=O)[C@H](CC2CCC2)N(C)C(=O)C[C@@H](C(=O)N(C)C)N(C)C(=O)[C@H](C2CCCC2)N(C)C(=O)C2(CCCC2)NC(=O)[C@@H]2CCCN2C(=O)[C@H](CCc2cc(F)c(C(F)(F)F)c(F)c2)NC(=O)CN(C)C(=O)[C@H](Cc2ccc(C(F)(F)F)cc2)N2C[C@H](C)CC[C@@H](C2=O)N(C)C(=O)CN(C)C1=O [PP1386] | 4.2 | – | 0.082 | – | – | B (a compound having 3 or more and less than 10 is denoted as B) | B (a compound having 3 or more and less than 10 is denoted as B) | – |
| CCC(CC)[C@H]1C(=O)N(C)[C@H](C(=O)N(C)C)CC(=O)N(C)[C@@H](COC)C(=O)N[C@@H]([C@@H](C)CC)C(=O)N(C)CC(=O)N(C)[C@H]2C/C=C\CCN(C2=O)[C@@H](CC2CCC(F)(F)CC2)C(=O)N(C)CC(=O)N[C@@H](CCc2cc(F)c(C(F)(F)F)c(F)c2)C(=O)N2C[C@@H](C)C[C@H]2C(=O)NC2(CC(C)(C)C2)C(=O)N1C [PP2448] | 26.9 | 1.4 | – | A (a compound having 10 or more and less than 20 is denoted as A) | A (a compound having 10 or more and less than 20 is denoted as A) | – | – | – |
| CCCCCC[C@H]1C(=O)N[C@@H]([C@@H](C)CC)C(=O)N(C)CC(=O)N(C)[C@H]2C/C=C\CCN(C2=O)[C@@H](Cc2ccc(C(F)(F)F)cc2)C(=O)N(C)CC(=O)N[C@@H](CCc2ccc3sccc3c2)C(=O)N2C[C@H](OCC)C[C@H]2C(=O)NC2(CCC2)C(=O)N(C)[C@@H](C2CCCC2)C(=O)N(C)[C@H](C(=O)N(C)C)CC(=O)N1C [PP1259] | 62 | – | 0.49 | – | – | A (a compound having 10 or more and less than 20 is denoted as A) | A (a compound having 10 or more and less than 20 is denoted as A) | – |
| CCO[C@@H]1C[C@H]2C(=O)NC3(CCC3)C(=O)N(C)[C@@H](C3CCCC3)C(=O)N(C)[C@H](C(=O)N(C)C)CC(=O)N(C)[C@@H](CC3CC3)C(=O)N[C@@H]([C@@H](C)CC)C(=O)N(C)CC(=O)N(C)[C@H]3C/C=C\CCN(C3=O)[C@@H](Cc3ccc(C)cc3)C(=O)N(C)CC(=O)N[C@@H](CCc3ccc(Cl)c(Cl)c3)C(=O)N2C1 [PP1485] | 30.5 | – | 0.28 | – | – | A (a compound having 10 or more and less than 20 is denoted as A) | A (a compound having 10 or more and less than 20 is denoted as A) | – |
| CCO[C@@H]1C[C@H]2C(=O)NC3(CCC3)C(=O)N(C)[C@@H](C3CCCC3)C(=O)N(C)[C@H](C(=O)N(C)C)CC(=O)N(C)[C@@H](CC)C(=O)N[C@@H]([C@@H](C)CC)C(=O)N(C)CC(=O)N(C)[C@H]3C/C=C\CCN(C3=O)[C@@H](Cc3ccc(C(F)(F)F)cc3)C(=O)N(C)CC(=O)N[C@@H](CCc3ccc(C(F)(F)F)c(C)c3)C(=O)N2C1 [PP1265] | 14.1 | – | 0.17 | – | – | B (a compound having 3 or more and less than 10 is denoted as B) | A (a compound having 10 or more and less than 20 is denoted as A) | – |

Further lines, with some results ahead:

| IC50 [1] [nM] | Kd [2, 5] [nM] | Kd [2, 6] [nM] | Structure (SMILES) | HRAS/KRAS (ratio of KD value for HRAS to KD value for KRAS) [3] | NRAS/KRAS (ratio of KD value for NRAS to KD value for KRAS) [4] | HRAS/KRAS (ratio of KD value for HRAS to KD value for KRAS) ([3]; KD ratio class) | NRAS/KRAS (ratio of KD value for NRAS to KD value for KRAS) ([4]; KD ratio class) | further results |
| --- | --- | --- | --- | --- | --- | --- | --- | --- |
| 84.8 | 1.5 | – | CCC[C@H]1C(=O)N[C@@H]([C@@H](C)CC)C(=O)N(C)CC(=O)N(C)[C@H]2C/C=C\CCN(C2=O)[C@@H](CC2CCC(F)(F)CC2)C(=O)N(C)CC(=O)N[C@@H](CCc2ccc(C(F)(F)F)c(OC)c2)C(=O)N2C[C@@H](C)C[C@H]2C(=O)NC2(CC(C)(C)C2)C(=O)N(C)[C@@H](C(CC)CC)C(=O)N(C)[C@H](C(=O)N(C)C)CC(=O)N1C [PP2497] | A (a compound having 10 or more and less than 20 is denoted as A) | A (a compound having 10 or more and less than 20 is denoted as A) | – | – | – |
| 29.2 | – | – | CCO[C@@H]1C[C@H]2C(=O)NC3(CC(C)(C)C3)C(=O)N(C)[C@@H](C3CCCCC3)C(=O)N(C)[C@H](C(=O)N(C)C)CC(=O)N(C)[C@@H](COC)C(=O)N[C@@H]([C@@H](C)CC)C(=O)N(C3CC3)CC(=O)N(C)[C@H]3C/C=C\CCN(C3=O)[C@@H](Cc3ccc(C(F)(F)F)cc3)C(=O)N(C)CC(=O)N[C@@H](CCc3cc(F)c(C(F)(F)F)c(F)c3)C(=O)N2C1 [PP2657] | – | – | – | – | Kd [2, 7]: 0.44 nM; HRAS/KRAS (ratio of KD value with respect to GDP-bound HRAS wild-type protein to KD value with respect to KRAS) [3]: A (a compound having 10 or more and less than 20 is denoted as A); NRAS/KRAS (ratio of KD value with respect to GDP-bound NRAS wild-type protein to KD value with respect to KRAS) [4]: A (a compound having 10 or more and less than 20 is denoted as A) |
| 142 | – | – | CCC(CC)[C@H]1C(=O)N(C)[C@H](C(=O)N(C)C)CC(=O)N(C)[C@@H](COC)C(=O)N[C@@H]([C@@H](C)CC)C(=O)N(C2CC2)CC(=O)N(C)[C@H]2C/C=C\CCN(C2=O)[C@@H](CC2CCC(F)(F)CC2)C(=O)N(C)CC(=O)N[C@@H](CCc2ccc(Cl)c(Cl)c2)C(=O)N2C[C@H](OC(C)C)C[C@H]2C(=O)NC2(CC(C)(C)C2)C(=O)N1C [PP2525] | – | – | – | – | Kd [2, 7]: 3.8 nM; HRAS/KRAS (ratio of KD value with respect to GDP-bound HRAS wild-type protein to KD value with respect to KRAS) [3]: A (a compound having 10 or more and less than 20 is denoted as A); NRAS/KRAS (ratio of KD value with respect to GDP-bound NRAS wild-type protein to KD value with respect to KRAS) [4]: AA (a compound having 20 or more is denoted as AA) |
| 10.6 | 0.13 | – | CC[C@H](C)[C@@H]1NC(=O)[C@H](COC)N(C)C(=O)C[C@@H](C(=O)N(C)CC)N(C)C(=O)[C@H](C2CCCC2)N(C)C(=O)C2(CC(C)(C)C2)NC(=O)[C@@H]2C[C@H](C)CN2C(=O)[C@H](CCc2ccc(C(F)(F)F)c(Cl)c2)NC(=O)CN(C)C(=O)[C@H](Cc2ccc(C)cc2)N2CC/C=C\C[C@@H](C2=O)N(C)C(=O)CN(C)C1=O [PP2506] | A (a compound having 10 or more and less than 20 is denoted as A) | A (a compound having 10 or more and less than 20 is denoted as A) | – | – | – |
| – | 0.27 | – | CCC[C@H]1C(=O)N[C@@H]([C@@H](C)CC)C(=O)N2CCC[C@H]2C(=O)N(C)[C@H]2C/C=C\CCN(C2=O)[C@@H](Cc2ccc(C(F)(F)F)cc2)C(=O)N(C)CC(=O)N[C@@H](CCc2cc(F)c(C(F)(F)F)c(F)c2)C(=O)N2C[C@H](OCC)C[C@H]2C(=O)N(C)C2(CCC2)C(=O)N(C)[C@@H](C2CCCC2)C(=O)N(C)[C@H](C(=O)N2CCCC2)CC(=O)N1C [PP3116] | A (a compound having 10 or more and less than 20 is denoted as A) | A (a compound having 10 or more and less than 20 is denoted as A) | – | – | IC50 [1, 8]: 7.8 nM; Kd [2, 9]: 0.27 nM; ratio of the KD value with respect to GDP-bound HRAS wild-type protein to the KD value with respect to KRAS [3]: A (a compound having 10 or more and less than 20 is denoted as A); ratio of the KD value with respect to GDP-bound NRAS wild-type protein to the KD value with respect to KRAS [4]: A (a compound having 10 or more and less than 20 is denoted as A) |
